# Assay results reported in PubChem BioAssay (NCI).
#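 Briefly, cells in 96-well plates were exposed to five compound concentrations for 48 h, and endpoints were estimated by linear interpolation. GI50 marks 50% less growth. TGI is the concentration that stops growth completely.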
# How the values were obtained:
# Experiment in all cases: DTP human tumour cell line panel, 48 h
# NCI-H226 lung = system: NCI-H226 lung
# NCI-H23 lung = system: NCI-H23 lung
# NCI-H460 lung = system: NCI-H460 lung
# NCI-H522 lung = system: NCI-H522 lung
# NCI/ADR-RES ovarian = system: NCI/ADR-RES ovarian
# OVCAR-3 ovarian = system: OVCAR-3 ovarian
# OVCAR-4 ovarian = system: OVCAR-4 ovarian
# OVCAR-5 ovarian = system: OVCAR-5 ovarian
# OVCAR-8 ovarian = system: OVCAR-8 ovarian
# PC-3 prostate = system: PC-3 prostate
# RPMI-8226 leukemia = system: RPMI-8226 leukemia
# RXF 393 renal = system: RXF 393 renal
# SF-268 CNS = system: SF-268 CNS
# SF-295 CNS = system: SF-295 CNS
# SF-539 CNS = system: SF-539 CNS
# SK-MEL-2 melanoma = system: SK-MEL-2 melanoma
# SK-MEL-28 melanoma = system: SK-MEL-28 melanoma
# SK-MEL-5 melanoma = system: SK-MEL-5 melanoma
# SK-OV-3 ovarian = system: SK-OV-3 ovarian
# SN12C renal = system: SN12C renal
# SNB-19 CNS = system: SNB-19 CNS
# SNB-75 CNS = system: SNB-75 CNS
# SW-620 colon = system: SW-620 colon
# T-47D breast = system: T-47D breast
# TK-10 renal = system: TK-10 renal
# U251 CNS = system: U251 CNS
# UACC-257 melanoma = system: UACC-257 melanoma
# UACC-62 melanoma = system: UACC-62 melanoma
# UO-31 renal = system: UO-31 renal
structure (smiles),measurement,setting,value
CC[C@H](Nc1nc(NCc2cnc(C)cc2C)c2ncn(C(C)C)c2n1)[C@@H](C)O,GI50,NCI-H226 lung,267 nM
same,TGI,NCI-H226 lung,934 nM
same,GI50,NCI-H23 lung,334 nM
same,TGI,NCI-H23 lung,2150 nM
same,GI50,NCI-H460 lung,327 nM
same,TGI,NCI-H460 lung,15700 nM
same,GI50,NCI-H522 lung,262 nM
same,TGI,NCI-H522 lung,1310 nM
same,GI50,NCI/ADR-RES ovarian,1970 nM
same,TGI,NCI/ADR-RES ovarian,> 31000 nM
same,GI50,OVCAR-3 ovarian,355 nM
same,TGI,OVCAR-3 ovarian,> 24100 nM
same,GI50,OVCAR-4 ovarian,631 nM
same,TGI,OVCAR-4 ovarian,11500 nM
same,GI50,OVCAR-5 ovarian,282 nM
same,TGI,OVCAR-5 ovarian,> 100000 nM
same,GI50,OVCAR-8 ovarian,382 nM
same,TGI,OVCAR-8 ovarian,> 100000 nM
same,GI50,PC-3 prostate,314 nM
same,TGI,PC-3 prostate,> 100000 nM
same,GI50,RPMI-8226 leukemia,308 nM
same,TGI,RPMI-8226 leukemia,14200 nM
same,GI50,RXF 393 renal,179 nM
same,TGI,RXF 393 renal,389 nM
same,GI50,SF-268 CNS,268 nM
same,TGI,SF-268 CNS,2410 nM
same,GI50,SF-295 CNS,298 nM
same,GI50,SF-539 CNS,240 nM
same,TGI,SF-539 CNS,781 nM
same,GI50,SK-MEL-2 melanoma,549 nM
same,TGI,SK-MEL-2 melanoma,3010 nM
same,GI50,SK-MEL-28 melanoma,374 nM
same,TGI,SK-MEL-28 melanoma,6800 nM
same,GI50,SK-MEL-5 melanoma,219 nM
same,TGI,SK-MEL-5 melanoma,498 nM
same,GI50,SK-OV-3 ovarian,3890 nM
same,TGI,SK-OV-3 ovarian,> 100000 nM
same,GI50,SN12C renal,351 nM
same,TGI,SN12C renal,> 100000 nM
same,GI50,SNB-19 CNS,318 nM
same,TGI,SNB-19 CNS,> 100000 nM
same,GI50,SNB-75 CNS,159 nM
same,TGI,SNB-75 CNS,407 nM
same,GI50,SW-620 colon,235 nM
same,TGI,SW-620 colon,> 21900 nM
same,GI50,T-47D breast,402 nM
same,TGI,T-47D breast,> 100000 nM
same,GI50,TK-10 renal,625 nM
same,TGI,TK-10 renal,> 100000 nM
same,GI50,U251 CNS,333 nM
same,TGI,U251 CNS,> 100000 nM
same,GI50,UACC-257 melanoma,410 nM
same,TGI,UACC-257 melanoma,> 100000 nM
same,GI50,UACC-62 melanoma,304 nM
same,TGI,UACC-62 melanoma,1880 nM
same,GI50,UO-31 renal,272 nM
same,TGI,UO-31 renal,> 100000 nM
